Values quoted from earlier work in patent publication US20030207327A1, “Coisogenic eukaryotic cell collections” (priority 2001, published 2003).
Positions count from the first letter of the chain named. Where two headings read alike, the source gives them in different places.

Experiments:
[1] = target: T1, TPMT (thiopurine S-methyltransferase) (Homo sapiens, UniProt P51580, R215H); conditions: TPMT variant G644A, Arg215His; OMIM 187680
T1 sequence (P51580 1-245 R215H): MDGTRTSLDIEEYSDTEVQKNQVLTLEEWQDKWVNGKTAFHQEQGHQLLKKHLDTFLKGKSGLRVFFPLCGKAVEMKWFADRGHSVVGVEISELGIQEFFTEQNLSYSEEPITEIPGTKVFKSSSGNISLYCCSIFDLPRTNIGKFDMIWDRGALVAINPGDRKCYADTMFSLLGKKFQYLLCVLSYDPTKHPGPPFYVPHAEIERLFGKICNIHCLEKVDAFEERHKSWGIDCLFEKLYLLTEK

[2] = target: T2, TPMT (thiopurine S-methyltransferase) (Homo sapiens, UniProt P51580, Y240C); conditions: TPMT variant A719G, Tyr240Cys; OMIM 187680
T2 sequence (P51580 1-245 Y240C): T1 sequence (P51580 1-245 R215H) with H215R, Y240C

[3] = target: T3, TPMT (thiopurine S-methyltransferase) (Homo sapiens, UniProt P51580, A154T); conditions: TPMT variant G460A, Ala154Thr; OMIM 187680
T3 sequence (P51580 1-245 A154T): T1 sequence (P51580 1-245 R215H) with A154T, H215R

[4] = target: T4, TPMT (thiopurine S-methyltransferase) (Homo sapiens, UniProt P51580, A80P); conditions: TPMT variant G238C, Ala80Pro; OMIM 187680
T4 sequence (P51580 1-245 A80P): T1 sequence (P51580 1-245 R215H) with A80P, H215R

[5] = tested on: beta tubulin (Isoform M40)
CYP2D6 = conditions: protein variant Gly169Ter; poor drug metabolizer; OMIM 124030
[6] = target: ABCB1 (MDR1, P-glycoprotein) (Homo sapiens, UniProt P08183, G185V)
Chain of ABCB1 (MDR1, P-glycoprotein) (P08183 whole entry G185V): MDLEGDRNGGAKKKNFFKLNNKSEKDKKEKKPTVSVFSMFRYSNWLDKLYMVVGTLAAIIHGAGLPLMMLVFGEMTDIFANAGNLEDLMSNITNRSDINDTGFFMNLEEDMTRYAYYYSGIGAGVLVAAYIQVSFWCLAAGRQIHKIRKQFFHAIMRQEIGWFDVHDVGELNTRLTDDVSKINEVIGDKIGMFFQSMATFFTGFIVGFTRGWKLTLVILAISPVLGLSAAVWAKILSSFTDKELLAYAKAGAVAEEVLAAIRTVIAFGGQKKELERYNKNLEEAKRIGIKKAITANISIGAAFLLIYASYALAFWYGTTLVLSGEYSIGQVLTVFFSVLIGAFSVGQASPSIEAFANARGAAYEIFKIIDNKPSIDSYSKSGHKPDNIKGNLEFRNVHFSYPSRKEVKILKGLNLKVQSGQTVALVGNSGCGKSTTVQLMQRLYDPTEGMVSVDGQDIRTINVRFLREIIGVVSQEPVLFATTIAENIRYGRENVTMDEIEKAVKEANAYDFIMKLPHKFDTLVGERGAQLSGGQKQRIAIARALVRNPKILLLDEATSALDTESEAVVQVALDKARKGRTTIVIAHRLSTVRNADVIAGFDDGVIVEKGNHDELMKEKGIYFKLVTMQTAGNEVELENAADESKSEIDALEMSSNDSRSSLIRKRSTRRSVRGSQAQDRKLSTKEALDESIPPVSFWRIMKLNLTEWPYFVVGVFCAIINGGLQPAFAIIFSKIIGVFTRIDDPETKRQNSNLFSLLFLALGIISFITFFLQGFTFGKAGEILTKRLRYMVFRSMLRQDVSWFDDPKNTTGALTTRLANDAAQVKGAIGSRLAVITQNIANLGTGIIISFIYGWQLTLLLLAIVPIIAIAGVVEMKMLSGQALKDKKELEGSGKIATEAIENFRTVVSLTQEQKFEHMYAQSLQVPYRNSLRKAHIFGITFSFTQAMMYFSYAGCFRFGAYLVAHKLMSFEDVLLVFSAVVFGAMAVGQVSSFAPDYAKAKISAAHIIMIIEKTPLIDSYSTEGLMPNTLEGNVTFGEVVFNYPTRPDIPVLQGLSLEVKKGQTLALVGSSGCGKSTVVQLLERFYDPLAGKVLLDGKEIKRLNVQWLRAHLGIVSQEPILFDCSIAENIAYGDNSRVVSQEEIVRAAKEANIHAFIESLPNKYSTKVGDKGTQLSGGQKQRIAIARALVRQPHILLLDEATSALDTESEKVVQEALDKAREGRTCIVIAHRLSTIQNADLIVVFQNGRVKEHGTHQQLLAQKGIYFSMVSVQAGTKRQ

Sc1ncnc2nc[nH]c12 [6-mercaptopurine]
Phenotype [1]: sensitivity
Phenotype [2]: sensitivity
Phenotype [3]: sensitivity
Phenotype [4]: sensitivity

CC(=O)O[C@H]1C(=O)[C@@]2(C)[C@H]([C@H](OC(=O)c3ccccc3)[C@]3(O)C[C@H](OC(=O)[C@H](O)[C@@H](NC(=O)c4ccccc4)c4ccccc4)C(C)=C1C3(C)C)[C@]1(OC(C)=O)CO[C@@H]1C[C@@H]2O [paclitaxel]
Phenotype (response to paclitaxel) ([5]; beta tubulin variant Ala364Thr (G1092A)): resistance
Phenotype (response to paclitaxel) ([5]; beta tubulin variant Phe270Val (T810G)): resistance

N=C(N)N1CCc2ccccc2C1 [Debrisoquine]
Phenotype (CYP2D6): Debrisoquine, poor

COc1cc2c(c(OC)c1OC)-c1ccc(OC)c(=O)cc1[C@@H](NC(C)=O)CC2 [colchicine]
Phenotype: colchicine resistance [6]: increased
